# Experimental data taken from patent publication US8697081B2, “Method of modulating neovascularization” (The Regents of the University of Michigan, priority 2008, dated 2014).
# Legend:
# Assay type in all cases: cell-based
# [1] = test system: Human umbilical vein endothelial cells; assay: Atomic force microscopy micro-indentation of pericellular ECM rigidity; details: VEGF/HGF-stimulated, fibrin gels
# Procedure: Since ECM rigidity regulates cytoskeletal remodeling and force generation, and consequently cell function (Engler et al., 2006. Cell, 126: 677-689; Wozniak and Chen, supra; Zajac and Discher, 2008. Curr. Opin. Cell Biol., 20: 609-615), atomic force microscopy micro-indentation (AFM) was employed to quantify endothelial cell-dependent changes in ECM remodeling. AFM was performed by first washing fibrin gels with phosphate buffered saline (PBS) after removing culture medium. Samples were mechanically characterized using an Asylum MFP-3D atomic force microscope (Asylum Research, Santa Barbara, Calif.). Micro-indentation was performed using a sphere-tipped probe (Novascan, Ames, Iowa) with a sphere diameter of 5 μm and a nominal spring constant of ˜60 pN/nm. The cantilever spring constant was confirmed by thermal fluctuation method (Thundat et al., 1994. Applied Physics Letters, 64: 2894-2896). The AFM system was calibrated by following the manufacturer's recommended procedure before each indentation measurement. AFM micro-indentation was performed in PBS solution at room temperature. Individual force-indentation profile was acquired at an indentation rate of 2 μm/s using deflection trigger mode with a trigger value of 200 nm. […] Shear modulus at each position was calculated from fitting force-indentation data using a Hertz sphere model (Richert et al., 2004, Biomacromolecules, 5: 1908-1916).
# human endothelial cells [2] = assay: Fn matrix assembly by endothelial cells in 3-D fibrin gel, confocal laser microscopy
# Procedure: Endothelial cells were isolated from human umbilical cord veins by collagenase digestion and cultured in Medium 199 (Gibco) containing 20% human serum, 50 μg/ml endothelial cell growth supplement (BD Biosciences), 100 U/ml penicillin, and 100 μg/ml streptomycin (Hiraoka et al. 1998. Cell, 95(3): 365-377). For 2-D/3-D culture, endothelial cell monolayers (no later than third passage) were suspended by mild trypsinization and dispersed within or plated atop fibrin (3 mg/ml) or collagen (2.2 mg/ml) gels (prepared as described in Hiraoka, supra, and Hotary et al. 2003. Cell, 114(1): 33-45), and stimulated with a cocktail of growth factors including 100 ng/ml human vascular endothelial growth factor (Genentech), 50 ng/ml human hepatocyte growth factor (Genentech), 10 ng/ml human TGFα (Biosource), 0.5 ng/ml TGFβ1 (R and D Systems), and 100 μg/ml heparin (Sigma). In selected experiments, endothelial cell spheroids were prepared and suspended in 3-D fibrin gels.
# The effect of Fn matrix assembly, or lack thereof, on endothelial cell function during neovascularization was assessed. Human serum was depleted of Fn by gelatin-sepharose affinity chromatography (Amersham) and supplemented with either 20 μg/ml of human plasma Fn (Sigma) or FITC-labeled Fn. […]
# (Chernousov et al. 1991. J. Biol. Chem., 266(17): 10851-10858; Tomasini-Johansson et al. 2001. J. Biol. Chem., 276(26): 23430-23439; Mao and Schwarzbauer. 2005. Matrix Biol., 24(6): 389-399; and Tomasini-Johansson et al. 2006. Matrix Biol., 25(5): 282-293). […] Cell number in 3-D cultures was determined by hemacytometry after dissolving gels with 2 mg/ml bacterial collagenase (Worthington) while the number of patent tubules was determined in randomly selected cross-sections. Fn matrix assembly and cell morphology were monitored by confocal laser microscopy. To examine cell migration, endothelial cells were embedded in a 100 μl fibrin gel for 2 hours, then placed within a 500 μl gel for 8 days in the presence of Del29, FUD, control IgG, or L8, after which migration from the inner gel was assessed. […]
# human endothelial cells [3] = assay: Tubulogenesis (patent tubules) in 3-D fibrin gel; details: 50 μM blebbistatin
# Procedure: Endothelial cells were isolated from human umbilical cord veins by collagenase digestion and cultured in Medium 199 (Gibco) containing 20% human serum, 50 μg/ml endothelial cell growth supplement (BD Biosciences), 100 U/ml penicillin, and 100 μg/ml streptomycin (Hiraoka et al. 1998. Cell, 95(3): 365-377). […]
# (Chernousov et al. 1991. J. Biol. Chem., 266(17): 10851-10858; Tomasini-Johansson et al. 2001. J. Biol. Chem., 276(26): 23430-23439; Mao and Schwarzbauer. 2005. Matrix Biol., 24(6): 389-399; and Tomasini-Johansson et al. 2006. Matrix Biol., 25(5): 282-293). […] Cell number in 3-D cultures was determined by hemacytometry after dissolving gels with 2 mg/ml bacterial collagenase (Worthington) while the number of patent tubules was determined in randomly selected cross-sections. Fn matrix assembly and cell morphology were monitored by confocal laser microscopy. To examine cell migration, endothelial cells were embedded in a 100 μl fibrin gel for 2 hours, then placed within a 500 μl gel for 8 days in the presence of Del29, FUD, control IgG, or L8, after which migration from the inner gel was assessed.
# human endothelial cells [4] = assay: F-actin cytoskeletal organization, activated β1 integrin and vinculin distribution (phalloidin, confocal); details: 3-D fibrin gel, 2 days, 50 μM blebbistatin
# Procedure: To further study the effects of Fn matrix inhibition, additional cytological processes associated with angiogenesis were examined. Endothelial cells were cultured within 3-D or 2-D fibrin gels in the presence of the FUD or Del 29 peptides for 2 days. F-actin cytoskeletal organization was monitored following staining with Alexa 488-conjugated phalloidin. Cells also were stained with an antibody against activated β1 integrin or transfected with a GFP-tagged vinculin expression vector (pRK-vinculin-EGFP) to study distribution. Following counterstaining with Alexa 594-labeled phalloidin, fluorescence was monitored by confocal laser microscopy.
# In the absence of Fn fibrillogenesis, an impaired ability of embedded endothelial cells to generate myosin-dependent forces and increase cytoplasmic stiffness was predicted to affect both Fn unfolding, as well as the ability of the cells to properly register the mechanical properties of the surrounding substratum (Wu et al. 1995. Cell, 83(5): 715-724; Zhong et al. 1998. J. Cell Biol., 141(2): 539-551; Baneyx et al. 2002. Proc. Natl. Acad. Sci. USA, 99(8): 5139-5143; Discher et al. 2005. Science, 310(5751): 1139-1143; Engler, supra; and Yoneda, supra). As such, the rheologic and functional characteristics of endothelial cells were assessed in the presence of the specific myosin ATPase inhibitor, blebbistatin. […]
# [5] = test system: Human umbilical vein endothelial cells; assay: Cytoskeletal organization (F-actin, β-tubulin, vimentin) and isometric tension/contractile force; details: 3-D culture, VEGF/HGF-stimulated, blebbistatin or nocodazole
# Procedure: This process can be recapitulated in vitro by embedding serum-supplemented human endothelial cells within a 3-D fibrin gel in the presence of the pro-angiogenic factors, VEGF and HGF. Human umbilical vein endothelial cells were isolated from umbilical cords by perfusion of the umbilical vein with type 3 collagenase (Worthington, Lakewood, N.J.) and cultured in Medium-199 (Invitrogen, Carlsbad, Calif.) with 20% human serum and 50 μg/ml endothelial cell growth supplement (ECGS; BD Biosciences, Franklin Lakes, N.J.). For 3-D culture, endothelial cells were suspended in a solution of thrombin and aprotinin (Sigma, St. Louis, Mo.) and mixed 1:1 with a solution of 6 mg/ml fibrinogen (Calbiochem, Gibbstown, N.J.). Vasculogenesis was triggered by treatment with 100 ng/ml VEGF, 50 ng/ml HGF (Genentech, San Francisco, Calif.).
# VEGF/HGF-stimulated endothelial cells were treated with either (a) blebbistatin to inhibit myosin ATPase function, or (b) nocodazole to prevent microtubule assembly under 3-D culture conditions (Salpingidou et al., 2007. J. Cell Biol., 178: 897-904; Zhou et al., supra).
Molecule,3-D pericellular rigidity (shear modulus by AFM) [1],"pericellular Fn matrix assembly (human endothelial cells [2]; 2 days, 50 μM blebbistatin)",endothelial cell tubulogenesis (human endothelial cells [3]),cytoskeletal architecture reorganization (human endothelial cells [4]),contractile force exerted on the 3-D ECM [5],"Fn matrix assembly (Fn polymerization) (human endothelial cells [2]; growth factor cocktail, FUD or Del29 250 nM, L8 or 9D2 100 μg/ml, 70 kDa Fn fragment 75 μg/ml)"
CNC(=O)[C@H](Cc1c[nH]c2ccccc12)NC(=O)[C@@H](CC(=O)NO)CC(C)C [GM6001],significantly lower,,,,,
Cc1ccc2c(c1)C(=O)C1(O)CCN(c3ccccc3)C1=N2 (stereo not shown) [blebbistatin],,failed to assemble,blocked completely,did not reorganize,impairing,
"FUD: 49-residue functional upstream domain of Streptococcus pyogenes F1 adhesion protein, SEQ ID NO: 10; fibronectin fibril assembly inhibitor (KDQSPLAGESGETEYITEVYGNQQNPVDIDKKLPNETGFSGNMVETEDT; Streptococcus pyogenes; Functional Upstream Domain (FUD) of F1 adhesion protein)",significantly lower,,,,,attenuated
